Assay results reported in patent US6552060B1, “Asymmetric disulfides and methods of using same” (Prolx Pharmaceuticals, Inc., priority 1997, dated 2003).
Where “and” joins values, the source holds several entries; their conditions need not be identical. Identical values can stand only once. Entries after “also recorded” stand apart in the source; their conditions may differ. Like-named read-outs stand apart in the source and are kept apart here. Marks after values point to notes of the source that are not given here.

Columns and labels:
[1] = test system: EMT6 mouse mammary tumor cells; conditions: 48 h
[2] = in vitro; conditions: mouse
[3] = biological target: T1, TR/Trx (Homo sapiens, UniProt Q16881); assay: Thioredoxin dependent reduction of insulin by human thioredoxin reductase and NADPH (IC50 TR/Trx, 96 well); assay type: biochemical
T1 sequence (Q16881 1-499 isoform Q16881-5): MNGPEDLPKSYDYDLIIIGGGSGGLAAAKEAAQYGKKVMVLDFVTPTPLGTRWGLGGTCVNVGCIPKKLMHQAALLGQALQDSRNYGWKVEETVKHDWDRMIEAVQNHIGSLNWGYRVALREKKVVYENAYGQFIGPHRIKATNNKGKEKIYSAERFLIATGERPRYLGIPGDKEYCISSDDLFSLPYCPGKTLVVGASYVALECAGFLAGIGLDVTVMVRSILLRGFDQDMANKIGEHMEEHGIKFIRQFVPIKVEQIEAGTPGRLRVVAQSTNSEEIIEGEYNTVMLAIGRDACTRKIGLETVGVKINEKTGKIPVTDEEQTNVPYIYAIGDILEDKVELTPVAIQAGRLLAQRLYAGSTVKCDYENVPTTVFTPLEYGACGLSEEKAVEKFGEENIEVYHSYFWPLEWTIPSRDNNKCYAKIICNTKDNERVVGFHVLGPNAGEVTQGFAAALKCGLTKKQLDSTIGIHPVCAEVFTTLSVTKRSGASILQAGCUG
From the text: When referring to the particular system being analyzed IC50 is typically followed by an abbreviation referring to that system (i.e., IC50 TR/Trx for the above described thioredoxin redox system which is comprised of thioredoxin reductase and thioredoxin).
A second plate was used for the assessment of biological activity or as a biological screen. Aliquots of disulfides dissolved in DMSO, were be transferred into 96 well plates. The assay to assess their ability to inhibit thioredoxin reductase measures the thioredoxin dependent reduction of insulin by human thioredoxin reductase and NADPH. The effects of the disulfides on the reduction of Trx by TR were measured spectrophotometrically by following the reduction of NADPH at 339 nm with insulin as the final electron acceptor in a buffered mixture of TR, Trx, NADPH and insulin.

[4] = test system: HL60 cells; assay: Induction of apoptosis in HL60 cells; assay type: cell-based, human; conditions: within 8 h of exposure, same concentration
[5] = test system: MCF-7 human breast cancer cells; assay: Thioredoxin and serum dependent growth of MCF-7 cells; assay type: cell-based; conditions: 48 hr
Description: MCF-7 human breast cancer cells were obtained from the American Tissue Type Collection (Rockville, Md.). Cultures were maintained in Dulbecco's Modified Eagles' medium (DMEM) containing 10% fetal bovine serum (fbs) at 37° C. and 6% CO2, and passaged at 75% confluence using 0.025% trypsin. The effect of the disulfides on cell proliferation was measured as previously described and incorporated herein by reference. Briefly, 10^5 cells were plated in a 35 mm culture dish in the above medium and, after attachment for 24 hr, their growth was arrested by changing to DMEM with 0.5% fbs for 48 hr. The medium was then replaced with DMEM containing 10% fbs or 1 μM thioredoxin, with or without the disulfides. The cell number was measured 2 days later following detachment with 0.025% trypsin using a hemocytometer.
The effects of the disulfides on the growth of human MCF-7 breast cancer cells is shown graphically in FIG. 1. […] The cells were growth arrested in medium with 0.5% serum for 48 hr at which time there were 0.2×10^6 cells. DMEM with 1 mM thioredoxin (open symbols) or 10% serum (filled symbols) was added and the increase in cell number over a 48 hr period was measured in the presence of various concentrations of the disulfides. Values are means±SEM. n=6.

[6] = test system: MCF-7 breast cancer cells in scid mice; assay: Activity against MCF-7 breast cancer cells in scid mice; assay type: in vivo; conditions: for T/C %: tumor volume treated versus control at day 28
From the text: This is shown below in Table II.

[7] = biological target: T2, thioredoxin (Homo sapiens, UniProt P10599); assay: Direct reaction between thioredoxin and disulfides, release of 2-mercaptoimidazole at 252 nm; assay type: biochemical; conditions: thioredoxin 2 μM, disulfide 200 μM, pH 7.4, room temperature
T2 construct: made in house; host or cells: E. coli
T2 sequence (P10599 1-105): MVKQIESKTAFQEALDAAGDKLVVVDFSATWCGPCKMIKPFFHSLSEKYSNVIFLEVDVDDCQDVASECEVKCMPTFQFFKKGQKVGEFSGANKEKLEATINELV
Description: The effects of the assymetric disulfides of Table I on the reduction of thioredoxin and C73S by thioredoxin reductase was measured spectrophotometrically by following the reduction of NADPH at 339 nm. […] In some studies the disulfides at 3.5 μM were preincubated for up to 24 hr at room temperature in air with 0.7 μM thioredoxin or C73S in 100 μM HEPES buffer, pH 7.6, and 5 mM EDTA, before measuring the reduction of the thioredoxin or C73S by thioredoxin reductase with 1 mg/ml bovine insulin as the final electron acceptor. The ability of the disulfides to act as substrates for glutathione reductase was measured by following the reduction of NADPH using an incubation mixture containing 0.15 μg/ml glutathione reductase, 140 μM NADPH, 100 mM HEPES buffer, pH 7.6, 5 mM EDTA and the disulfides at 500 μM. The ability of the disulfides to act as inhibitors of glutathione reductase was measured using oxidized glutathione, 50 μM, as the final electron acceptor. In both cases the reaction was initiated by the addition of NADPH. Thioredoxin or C32S/C35S, 2 μM, in 0.1 M sodium phosphate buffer, pH 7.4, was reacted with the disulfides at a concentration of 200 μM at room temperature. This direct reaction between thioredoxin and the disulfides was followed spectrophotometrically as the increase in absorbance at 252 nm due to release of 2-mercaptoimidazole. Initial reaction rates were measured in triplicate.
Due to the fact that the disulfides inhibited thioredoxin-dependent cell growth at concentrations below those required to inhibit thioredoxin reductase, a direct effect of the disulfides on thioredoxin was looked for. The initial reaction between the disulfides and thioredoxin was measured spectrophotometrically (FIGS. 2A and 2B). […] This is the order of reactivity which be predicted from the steric and electronic nature of the disulfides thioalkylating groups.

[8] = biological target: T3, Human placental thioredoxin reductase (Homo sapiens, UniProt Q16881); assay: NADPH oxidation by thioredoxin reductase with the disulfide as substrate, or with thioredoxin and insulin as final electron acceptor and the disulfide as inhibitor; assay type: biochemical; conditions: for Type: behaviour towards thioredoxin reductase: substrate, inhibitor or non-reactive
T3 sequence (Q16881 1-499 isoform Q16881-5): T1 sequence (Q16881 1-499 isoform Q16881-5)
Description: The thioredoxin was stored at −20° C. with 5 mM dithiothreitol which was removed before use with a desalting column (PD10, Pharmacia, Uppsala, Sweden).
Asymmetrical 2-imidazolyl disulfides which were used as a basis for further development and identified below in Table 1. In Table I, NADPH oxidation by thioredoxin reductase was measured spectrophotometrically as described with either the disulfide as the electron acceptor (substrate) or with thioredoxin and insulin as the final electron acceptor and the disulfide as inhibitors. The reactions were initiated by the addition of NADPH. Km and Ki values were calculated from Lineweaver-Burk plots of the data.
The compounds of Table 1 were synthesized by a method described previously and recrystallized prior to use. Stock solutions of the disulfides were prepared at 10 mM in ethanol and diluted in aqueous media just prior to use. N-ethylmaleimide (NEM), diamide, and DTT were obtained from Sigma Chemical Co. (St. Louis, Mo.). All other chemicals used were of reagent grade. […]

[9] = test system: thioredoxin transfected MCF-7 cells; assay: Apoptosis in MCF-7 cells transfected with human thioredoxin cDNA; conditions: 30 μM, apoptosis measured 48 h later
[10] = test system: human primary tumors; assay: Growth of human primary tumors in soft agarose; assay type: cell-based
[11] = test system: MCF-7 breast cancer cells; conditions: read-out: EC50 for growth stimulation; cited from earlier work
[12] = MCF7, in the presence of 1 μM thioredoxin, read-out: IC50 thioredoxin dependent proliferation
[13] = MCF7, with 10% fetal bovine serum, read-out: IC50 serum dependent growth

With `CC(C)SSCc1ccccc1` [Compound E-19] the IC50 [1] was 25 µM and the IC50 at 48 h [2] was 42 µM.

With `CCC(C)SSc1ncnc2[nH]cnc12` (centres unmarked) [Compound F-7] the IC50 ([3]; Table 3, read-out: IC50 TR/Trx (converted)) was 95.7 µM, the IC50 [1] was > 180 µM and the IC50 at 48 h [2] was > 180 µM.

For `CCCCSSc1ncc[nH]1` [III-2, n-butyl 2-imidazolyl disulfide], the IC50 ([3]; Table 4, read-out: Disulfide inhibition of TR/Trx (IC50 TR/Trx) (converted)) was 117 µM, the “apoptosis of HL60 cells” value [4] was “stimulated to apoptose” and the IC50 [5, 12] was 0.2 µM. The IC50 [5, 13] was 35 µM, the Toxicity dead/injected ([6]; 6 mg/kg/day i.p. for 14 days) was 0/8 and the T/C % ([6]; 6 mg/kg/day i.p. for 14 days) was 48.9^c %. For the same molecule, the Toxicity dead/injected ([6]; 12 mg/kg/day i.p. for 14 days) was 0/8, the T/C % ([6]; 12 mg/kg/day i.p. for 14 days) was 56.6^c % and the Toxicity dead/injected ([6]; 18 mg/kg/day i.p. for 14 days) was 1/8. For the same molecule, the T/C % ([6]; 18 mg/kg/day i.p. for 14 days) was 100.2%, the IC50 at 48 h [2] was 12 µM and the “initial rate for reaction between thioredoxin and disulfide” value [7] was 7.3e-07 M/s. The Type [8] was “substrate” and the Km ([8]; disulfide as substrate for reduction by thioredoxin reductase, Lineweaver-Burk) was 43 µM and 43.1 µM.

For `CCC(C)SSc1ncc[nH]1` (centres unmarked) [IV-2, 1-methylpropyl 2-imidazolyl disulfide], the “apoptosis of HL60 cells” value [4] was “stimulated to apoptose”, the IC50 [5, 12] was 1.2 µM and the IC50 [5, 13] was 3.2 µM. For the same molecule, the T/C % ([6]; 5 mg/kg/day i.p. for 14 days) was 56.7%, the T/C % ([6]; 10 mg/kg/day i.p. for 14 days) was 45.9^c % and the T/C % ([6]; 15 mg/kg/day i.p. for 14 days) was 2.3^c %. The tumor inhibition ([6]; MCF-7 tumor system) was 98%, the IC50 at 48 h [2] was 19 µM and the “initial rate for reaction between thioredoxin and disulfide” value [7] was 2.8e-07 M/s. The “apoptosis induced in thioredoxin transfected cells” value [9] was “became resistant to apoptosis”, the “growth of human primary tumors in soft agarose” value [10] was “inhibited” and the Type [8] was “competitive inhibitors; also recorded: inhibitor”.

B1: thioredoxin: low molecular weight redox protein; human recombinant thioredoxin stimulates proliferation of cancer cells (protein, UniProt P10599 2-105, looked up)
Thioredoxin: VKQIESKTAFQEALDAAGDKLVVVDFSATWCGPCKMIKPFFHSLSEKYSNVIFLEVDVDDCQDVASECEVKCMPTFQFFKKGQKVGEFSGANKEKLEATINELV
For B1, the EC50 [11] is given as 0.35 µM.
